Results on three molecules are retold here after paper PMC3362543 (2012).

The subject of test [1] is poly(U)•poly(A)*poly(U) (RNA, polymer) U/A/U. As to the kind of experiment: ITC, single set of sites. Particulars: 35 mM Na+ (25 mM NaCl, 10 mM sodium cacodylate), 0.1 mM Na2EDTA, pH 7.0, 25 °C, triplex 25 µM, per base.
The test system is the same in test [2]. Description: fluorescence titration, Scatchard, McGhee-von Hippel non-cooperative. The following applies: 35 mM Na+ (25 mM NaCl, 10 mM sodium cacodylate), 0.1 mM Na2EDTA, pH 7.0, 25 °C, intrinsic constant per isolated site, per base.
Test [3] has the same test system. As to the kind of experiment: absorbance titration, Scatchard, McGhee-von Hippel non-cooperative. Particulars: 35 mM Na+ (25 mM NaCl, 10 mM sodium cacodylate), 0.1 mM Na2EDTA, pH 7.0, 25 °C, intrinsic constant per isolated site, per base.
Test [4] shares this test system. Description: UV melting at 260 nm. Particulars: 35 mM Na+ (25 mM NaCl, 10 mM sodium cacodylate), 0.1 mM Na2EDTA, pH 7.0, D/P 0.6, triplex 30 µM (compound 18 µM), third-strand transition, per base.

For `COc1ccc2cc3[n+](cc2c1OC)CCc1cc2c(cc1-3)OCO2`, in test [1], the Ka is 1.5±0.04 × 10^5 M^-1. For the same molecule, the Ki in test [2] was 3.9±0.05 × 10^5 M^-1; in test [3] it was 2.88±0.02 × 10^5 M^-1. Also, the “ΔTm' (3→2)” value in test [4] amounted to 17.5 °C.
`COc1ccc2cc3[n+](cc2c1OCCCCCCN)CCc1cc2c(cc1-3)OCO2`: in test [1], the Ka is 23±0.10 × 10^5 M^-1. Further, the Ki in test [2] is on record as 47.0±0.56 × 10^5 M^-1; in test [3] it was 39.87±0.41 × 10^5 M^-1. Moreover, in test [4], the “ΔTm' (3→2)” value was found to be 20.5 °C.
In the same order, the values of `COc1ccc2cc3[n+](cc2c1OCCCN)CCc1cc2c(cc1-3)OCO2` are 9.73±0.09 × 10^5 M^-1, 9.5±0.10 × 10^5 M^-1, 8.65±0.34 × 10^5 M^-1 and 18.1 °C.
